Results taken from BindingDB's records for doi:10.1016/s0196-9781(98)00133-8 (Synaptic Pharmaceutical, 1998).
Non-standard residues stand in square brackets, D forms with d. Residues, ends and D or L forms follow the SMILES beside them.

biological target: T1, Galanin receptor type 3 (Homo sapiens, UniProt O60755)
T1 sequence (O60755 whole entry): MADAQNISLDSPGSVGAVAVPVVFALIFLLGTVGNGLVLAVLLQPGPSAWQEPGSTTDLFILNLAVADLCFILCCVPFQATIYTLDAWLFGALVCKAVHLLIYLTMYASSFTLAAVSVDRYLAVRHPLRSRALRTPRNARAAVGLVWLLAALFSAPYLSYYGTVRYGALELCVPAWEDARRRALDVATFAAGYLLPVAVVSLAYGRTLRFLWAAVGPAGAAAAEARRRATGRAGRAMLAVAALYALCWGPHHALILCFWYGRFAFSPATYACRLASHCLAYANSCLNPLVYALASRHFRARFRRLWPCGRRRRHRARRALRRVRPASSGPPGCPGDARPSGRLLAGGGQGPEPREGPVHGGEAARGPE

Compound	Ki [nM]
CC[C@H](C)[C@H](NC(=O)[C@H](C)NC(=O)[C@H](Cc1c[nH]cn1)NC(=O)[C@@H]1CCCN1C(=O)CNC(=O)[C@H](CC(C)C)NC(=O)[C@H](CC(C)C)NC(=O)[C@H](Cc1ccc(O)cc1)NC(=O)CNC(=O)[C@H](C)NC(=O)[C@H](CO)NC(=O)[C@H](CC(N)=O)NC(=O)[C@H](CC(C)C)NC(=O)[C@@H](NC(=O)[C@@H](N)Cc1c[nH]c2ccccc12)[C@@H](C)O)C(=O)N[C@@H](CC(=O)O)C(=O)N[C@@H](CC(N)=O)C(=O)N[C@@H](Cc1c[nH]cn1)C(=O)N[C@@H](CCCNC(=N)N)C(=O)N[C@@H](CO)C(=O)N[C@@H](Cc1ccccc1)C(=O)N[C@@H](CO)C(=O)N[C@@H](CC(=O)O)C(=O)N[C@@H](CCCCN)C(=O)N[C@@H](Cc1c[nH]cn1)C(=O)NCC(=O)N[C@@H](CC(C)C)C(=O)N[C@H](C(N)=O)[C@@H](C)O [Galanin Porcine 2-29]	60.3

biological target: T2, Galanin receptor type 2 (Homo sapiens, UniProt O43603)
T2 sequence (O43603 whole entry): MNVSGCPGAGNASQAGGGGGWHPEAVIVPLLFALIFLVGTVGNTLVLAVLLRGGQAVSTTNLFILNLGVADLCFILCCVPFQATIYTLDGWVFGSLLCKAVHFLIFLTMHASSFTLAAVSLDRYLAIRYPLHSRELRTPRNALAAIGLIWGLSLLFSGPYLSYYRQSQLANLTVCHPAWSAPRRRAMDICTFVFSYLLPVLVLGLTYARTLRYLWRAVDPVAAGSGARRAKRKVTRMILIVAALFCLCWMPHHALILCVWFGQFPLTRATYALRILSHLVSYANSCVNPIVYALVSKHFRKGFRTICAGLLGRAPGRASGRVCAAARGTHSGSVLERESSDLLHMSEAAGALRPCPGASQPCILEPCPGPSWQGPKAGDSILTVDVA

Compound	Ki [nM]
CC(C)C[C@H](NC(=O)[C@H](CC(C)C)NC(=O)[C@H](Cc1ccc(O)cc1)NC(=O)CNC(=O)[C@H](C)NC(=O)[C@H](CO)NC(=O)[C@H](CC(N)=O)NC(=O)[C@H](CC(C)C)NC(=O)[C@@H](NC(=O)[C@H](Cc1c[nH]c2ccccc12)NC(=O)CN)[C@@H](C)O)C(=O)NCC(=O)N1CCC[C@H]1C(=O)N1CCC[C@H]1C(=O)N1CCC[C@H]1C(=O)NCC(=O)N[C@@H](Cc1ccccc1)C(=O)N[C@@H](CO)C(=O)N1CCC[C@H]1C(=O)N[C@@H](Cc1ccccc1)C(=O)N[C@@H](CCCN=C(N)N)C(N)=O	1.95
COc1ccccc1N(CCOc1ccc(C)cc1)C(=O)CN1CCCCC1 [CAS_3043476]	1.07
CC(C)C[C@H](NC(=O)[C@H](CC(C)C)NC(=O)[C@@H](Cc1c[nH]c2ccccc12)NC(=O)[C@H](Cc1ccccc1)NC(=O)[C@@H](Cc1c[nH]c2ccccc12)NC(=O)[C@H](CCC(N)=O)NC(=O)[C@H](CCC(N)=O)NC(=O)[C@@H]1CCCN1C(=O)[C@H](CCCCN)NC(=O)[C@@H]1CCCN1C(=O)[C@@H](CCCN=C(N)N)NC(=O)[C@@H]1CCCN1C(=O)CNC(=O)[C@H](CC(C)C)NC(=O)[C@H](CC(C)C)NC(=O)[C@H](Cc1ccc(O)cc1)NC(=O)CNC(=O)[C@H](C)NC(=O)[C@H](CO)NC(=O)[C@H](CC(N)=O)NC(=O)[C@H](CC(C)C)NC(=O)[C@@H](NC(=O)[C@H](Cc1c[nH]c2ccccc12)NC(=O)CN)[C@@H](C)O)C(N)=O [Gal(1-13)-Std I] (H-GWTLNSAGYLLGP[dR]PKPQQ[dW]F[dW]LL-NH2)	0.63
CC[C@H](C)[C@H](NC(=O)[C@H](C)NC(=O)[C@H](Cc1c[nH]cn1)NC(=O)[C@@H]1CCCN1C(=O)CNC(=O)[C@H](CC(C)C)NC(=O)[C@H](CC(C)C)NC(=O)[C@H](Cc1ccc(O)cc1)NC(=O)CNC(=O)[C@H](C)NC(=O)[C@H](CO)NC(=O)[C@H](CC(N)=O)NC(=O)[C@H](CC(C)C)NC(=O)[C@@H](N)[C@@H](C)O)C(=O)N[C@@H](CC(=O)O)C(=O)N[C@@H](CC(N)=O)C(=O)N[C@@H](Cc1c[nH]cn1)C(=O)N[C@@H](CCCNC(=N)N)C(=O)N[C@@H](CO)C(=O)N[C@@H](Cc1ccccc1)C(=O)N[C@@H](Cc1c[nH]cn1)C(=O)N[C@@H](CC(=O)O)C(=O)N[C@@H](CCCCN)C(=O)N[C@@H](Cc1ccc(O)cc1)C(=O)NCC(=O)N[C@@H](CC(C)C)C(=O)N[C@@H](C)C(N)=O [Galanin (3-29), porcine]	1000
CC[C@H](C)[C@H](NC(=O)[C@H](C)NC(=O)[C@H](Cc1c[nH]cn1)NC(=O)[C@@H]1CCCN1C(=O)CNC(=O)[C@H](CC(C)C)NC(=O)[C@H](CC(C)C)NC(=O)[C@H](Cc1ccc(O)cc1)NC(=O)CNC(=O)[C@H](C)NC(=O)[C@H](CO)NC(=O)[C@H](CC(N)=O)NC(=O)[C@H](CC(C)C)NC(=O)[C@@H](NC(=O)[C@@H](N)Cc1c[nH]c2ccccc12)[C@@H](C)O)C(=O)N[C@@H](CC(=O)O)C(=O)N[C@@H](CC(N)=O)C(=O)N[C@@H](Cc1c[nH]cn1)C(=O)N[C@@H](CCCNC(=N)N)C(=O)N[C@@H](CO)C(=O)N[C@@H](Cc1ccccc1)C(=O)N[C@@H](CO)C(=O)N[C@@H](CC(=O)O)C(=O)N[C@@H](CCCCN)C(=O)N[C@@H](Cc1c[nH]cn1)C(=O)NCC(=O)N[C@@H](CC(C)C)C(=O)N[C@H](C(N)=O)[C@@H](C)O [Galanin Porcine 2-29]	2.88
CC[C@H](C)[C@H](NC(=O)[C@H](C)NC(=O)[C@H](Cc1cnc[nH]1)NC(=O)[C@@H]1CCCN1C(=O)CNC(=O)[C@H](CC(C)C)NC(=O)[C@H](CC(C)C)NC(=O)[C@H](Cc1ccc(O)cc1)NC(=O)CNC(=O)[C@H](C)NC(=O)[C@H](CO)NC(=O)[C@H](CC(N)=O)NC(=O)[C@H](CC(C)C)NC(=O)[C@@H](NC(=O)[C@H](Cc1c[nH]c2ccccc12)NC(=O)CN)[C@@H](C)O)C(=O)N[C@@H](CC(=O)O)C(=O)N[C@@H](CC(N)=O)C(=O)N[C@@H](Cc1cnc[nH]1)C(N)=O [Galanin rat]	1.62
H-GWTLNSAGYLLGPPPALALA-NH2 [M40]	4.07
